Some results are limits rather than exact numbers.

The subject of the assay is K562. The assay is described as follows: In vitro cell growth inhibitory activity against K562 human chronic myelogenous leukemia cell line. Format: functional, cell-based.
As usually defined, the IC50 is the concentration that inhibits the measured activity by half. Low readings indicate inhibition by little substance, high ones a need for much substance. Compound `CC(=O)/C=C/c1ccc(O)cc1` had an IC50 of 60 µM.

`CC(=O)/C=C/c1cccc(C(F)(F)F)c1`: the IC50 turned out to be 3.5 µM. This IC50 lies about 17-fold lower than the previous one.

`CC(=O)CCc1ccc(O)cc1` [RASPBERRYKETONE]: the IC50 was greater than 100 µM.

Turning to `CC(=O)/C=C/c1ccc(Cl)cc1Cl`, 7.9 µM corresponded to half-maximal inhibition (IC50).

In the case of `CC(=O)/C=C/c1ccc(OCc2ccccc2)c(OCc2ccccc2)c1`, inhibition was half-maximal at 8.4 µM (IC50).

Consider `COc1cc(/C=C/C(C)=O)cc(OC)c1OC`, for which half-maximal inhibition (IC50) was put at 17 µM. Compared with the last compound, the IC50 is about 2-fold higher.

`CC(=O)/C=C/c1ccc(C(F)(F)F)cc1`: it took 3.3 µM to reach half-maximal inhibition (IC50).

`CC(=O)/C=C/c1ccc(C(C)C)cc1` displayed an IC50 of 21 µM. Against the preceding compound, the IC50 is about 6.4-fold higher.

For `CC(=O)/C=C/c1ccc([N+](=O)[O-])cc1`, the IC50 stood at 2.6 µM.

Compound `CSc1ccc(/C=C/C(C)=O)cc1` gave an IC50 of 15 µM.

As to `CC(=O)/C=C/c1ccc(N(C)C)cc1`, the IC50 was 90 µM.

Take `COc1ccc(/C=C/C(C)=O)cc1`: the IC50 was 79 µM.

Regarding `CC(=O)/C=C/C=C/c1ccccc1`, it took 20 µM to reach half-maximal inhibition (IC50).

With `CC(=O)/C=C/c1ccc(F)cc1`, the IC50 was found to be 6.1 µM.

The compound `COc1ccc(/C=C/C(C)=O)cc1O` registered an IC50 of 42 µM. Against the preceding compound, the IC50 is about 6.9-fold higher.

Take `CC(=O)/C=C/c1c(F)c(F)c(F)c(F)c1F`: 1.9 µM corresponded to half-maximal inhibition (IC50).

`CC(=O)/C=C/c1ccc(F)c(Br)c1` yielded an IC50 of 2.9 µM. Against the preceding compound, the IC50 is about 1.5-fold higher.

For `COc1cc(OC)c(/C=C/C(C)=O)c(OC)c1`, it took 9.3 µM to reach half-maximal inhibition (IC50).

`CC(=O)/C=C/c1cccc([N+](=O)[O-])c1` returned an IC50 of 2.6 µM.

In the case of `CC(=O)/C=C/c1ccc2ccccc2c1`, the IC50 stood at 7.6 µM. This IC50 is about 2.9-fold higher than that of the compound before.

As to `CC(=O)/C=C/c1cccs1`, the IC50 stood at 20 µM.

For `COc1cc(/C=C/C(C)=O)cc(OC)c1`, the IC50 worked out at 5.8 µM.

The compound `COc1cc(N(C)C)ccc1/C=C/C(C)=O` returned an IC50 of 68 µM.

Turning to `COc1ccc(/C=C/C(C)=O)c(OC)c1`, the IC50 is 30 µM.

As to `CC(=O)/C=C/c1cc(Br)ccc1F`, half-maximal inhibition (IC50) was put at 5.3 µM.

Consider `CC(=O)/C=C/c1ccc(Cl)cc1`, for which the IC50 was determined as 8.3 µM.

Compound `CC(O)CCc1ccc(O)cc1` (configuration not stated) had an IC50 greater than 100 µM.

Compound `CC(=O)/C=C/c1ccc2c(c1)OCO2` registered an IC50 of 12 µM.

With `CC(=O)/C=C/c1ccc(Br)cc1F`, the IC50 is 7.4 µM.

Regarding `COc1cc(/C=C/C(C)=O)ccc1O` [DEHYDROZINGERONE], the IC50 turned out to be 68 µM.

`COc1cccc(/C=C/C(C)=O)c1O` came in with an IC50 of 9.9 µM.

`CC(=O)/C=C/c1ccc(C)cc1`: the IC50 came out at 7.5 µM.

In the case of `COc1cc(/C=C/C(C)=O)cc(OC)c1O`, the IC50 worked out at 56 µM.

`CC(=O)/C=C/c1ccco1` registered an IC50 greater than 100 µM.

The compound `CC(=O)/C=C/c1ccc(OCc2ccccc2)cc1` had an IC50 of 10.3 µM.

Consider `CC(=O)/C=C/c1ccc(Br)cc1`, for which 5.6 µM corresponded to half-maximal inhibition (IC50). Against the preceding compound, the IC50 is about 1.8-fold lower.

On to `COc1ccc(/C=C/C(C)=O)cc1OC`, for which it took 34 µM to reach half-maximal inhibition (IC50). Compared with the last compound, the IC50 is about 6.1-fold higher.
